# According to patent US20120058200A1, “PROCESS FOR THE PREPARATION OF LANTHANUM CARBONATE DIHYDRATE” (Natco Pharma Limited, priority 2009, published 2012):
# How the values were obtained:
# [1] = Phosphate binding studies of various lanthanum carbonate hydrates; conditions: for % Phosphate removed: two-fold molar excess of lanthanum carbonate hydrate over phosphate; for Peak phosphate binding: in about 7 times (so in the source)
# Description: To study the phosphate binding activity of lanthanum carbonate dihdyrate, other hydrates of lanthanum carbonate (monohydrate, tetrahydrate and hexahydrate) were prepared. • a) A stock solution of standard phosphate was prepared by dissolving 13.75 g of Na2HPO4 in 1 L deionised water after adjusting the pH to 3.0 with […]. • b) Above stock solution (5 ml) was diluted with 90 ml water adjusted the pH to 3.0 with conc. HCl and made up to 100 ml with water. • c) A two-fold molar excess of Lanthanum carbonate hydrate over phosphate was weighed accurately according to the molecular weight and added to solution b). • d) Sampling was carried out at different time intervals 1, 3, 5, 7, and 10 min. […] Peak phosphate binding exceeding 99% is achieved with the dihydrate in about 7 times whereas only 81% is achieved with the tetrahydrate.
# [2] = room temperature
SMILES,"% Phosphate removed ([1]; 1 min, pH 3.0)","% Phosphate removed ([1]; 3 min, pH 3.0)","% Phosphate removed ([1]; 5 min, pH 3.0)","% Phosphate removed ([1]; 7 min, pH 3.0)","% Phosphate removed ([1]; 10 min, pH 3.0)","Phosphate binding speed ([1]; at all points (1-10 min), pH 3.0)",Peak phosphate binding ([1]; pH 3.0),Performance in phosphate binding studies ([1]; over standard lanthanum carbonate tetrahydrate),Stability [2]
"O.O.O=C([O-])[O-].O=C([O-])[O-].O=C([O-])[O-].[La+3].[La+3] [Dihydrate, lanthanum carbonate dihydrate]",94.00%,93.00%,93.00%,99.45%,99.17%,relatively very fast,exceeding 99%,improved performance,stable
O.O.O.O.O.O.O=C([O-])[O-].O=C([O-])[O-].O=C([O-])[O-].[La+3].[La+3] [Hexahydrate],57.10%,60.10%,79.73%,76.12%,81.15%,,,,
O.O=C([O-])[O-].O=C([O-])[O-].O=C([O-])[O-].[La+3].[La+3] [Monohydrate],82.73%,90.05%,87.10%,91.72%,98.30%,,,,
"O.O.O.O.O=C([O-])[O-].O=C([O-])[O-].O=C([O-])[O-].[La+3].[La+3] [Tetrahydrate, lanthanum carbonate tetrahydrate]",64.05%,73.64%,87.20%,81.21%,82.80%,,81%,,
